This is an account of results in article PMC3486420, “In Vitro and In Vivo Characterizations of Chiglitazar, a Newly Identified PPAR Pan-Agonist” (PPAR Research, 2012).

The subject of one data set is db/db mice. Put plainly: Gene expression by RT-PCR in tissues of treated db/db mice. Format: in vivo, mouse. Conditions: 14 days oral, chiglitazar 20 mg kg^−1 compared with rosiglitazone 5 mg kg^−1. As for the experimental part: Total RNA was extracted from cells or tissues with an RNeasy minikit (Qiagen, Valencia, CA, USA). The first-strand cDNA was synthesized using the oligo(dT) primers, followed by using SuperScript II reverse transcriptase (Invitrogen) according to the manufacturer's instructions. The PCR amplifications were performed in 10 μL of reaction mixture volume containing 0.8 μL of cDNA, 10 mM Tris-HCl (pH 8.3), 50 mM KCl, 1.5 mM MgCl2, 0.1% Triton X-100, 0.2 mM deoxynucleotide triphosphates, 0.4 μM primers, and 0.25 U of Taq polymerase (TaKaRa Biotechnology Co., Ltd, China). Taq DNA polymerase was added to each tube after a treatment of 2 min at 94°C. This was followed by 22–30 cycles of denaturation (23 s at 94°C), annealing (20 s at 55°C), extension (30 s at 72°C), and a final extension step of 2 min. PCR products were analyzed by electrophoresis on a 1.5% agarose gel stained with ethidium bromide.
Male db/db mice (BKS.Cg-m +/+ LEPR^db) in 6-7 weeks were purchased from The Jackson Laboratory (Bar Harbor, ME, USA). Male KKAy and C57BL/6J mice in 8–10 weeks were obtained from the Institute of Animal Science, Chinese Academy of Medical Sciences and Peking Union Medical College (Beijing, China). […] Plasma glucose levels were examined at various time points by Accu-Chek Advantage II Glucose Strips (Roche Diagnostics, Basel, Switzerland) and measured by Accu-Chek Advantage (Roche Diagnostics). […]

The next data set concerns the target T1, PPARγ (Homo sapiens, UniProt P37231).
T1 construct: expressed in transfected cells; host or cells: SMMC-7721 or U2OS
T1 sequence (P37231 1-505): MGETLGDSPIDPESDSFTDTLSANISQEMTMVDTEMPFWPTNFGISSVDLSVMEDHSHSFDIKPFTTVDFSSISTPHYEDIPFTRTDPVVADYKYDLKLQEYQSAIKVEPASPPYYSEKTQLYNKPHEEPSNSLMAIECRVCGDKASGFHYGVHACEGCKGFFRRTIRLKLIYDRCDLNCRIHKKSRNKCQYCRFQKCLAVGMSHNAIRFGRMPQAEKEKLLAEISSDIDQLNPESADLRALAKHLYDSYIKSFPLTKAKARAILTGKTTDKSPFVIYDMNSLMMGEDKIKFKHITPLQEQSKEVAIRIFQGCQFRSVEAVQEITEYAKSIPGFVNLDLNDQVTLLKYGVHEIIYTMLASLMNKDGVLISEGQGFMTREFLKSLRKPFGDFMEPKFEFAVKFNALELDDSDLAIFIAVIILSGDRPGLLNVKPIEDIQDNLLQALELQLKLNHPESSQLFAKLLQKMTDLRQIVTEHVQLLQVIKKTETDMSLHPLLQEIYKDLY
T1 sequence (P19793 1-462 partner): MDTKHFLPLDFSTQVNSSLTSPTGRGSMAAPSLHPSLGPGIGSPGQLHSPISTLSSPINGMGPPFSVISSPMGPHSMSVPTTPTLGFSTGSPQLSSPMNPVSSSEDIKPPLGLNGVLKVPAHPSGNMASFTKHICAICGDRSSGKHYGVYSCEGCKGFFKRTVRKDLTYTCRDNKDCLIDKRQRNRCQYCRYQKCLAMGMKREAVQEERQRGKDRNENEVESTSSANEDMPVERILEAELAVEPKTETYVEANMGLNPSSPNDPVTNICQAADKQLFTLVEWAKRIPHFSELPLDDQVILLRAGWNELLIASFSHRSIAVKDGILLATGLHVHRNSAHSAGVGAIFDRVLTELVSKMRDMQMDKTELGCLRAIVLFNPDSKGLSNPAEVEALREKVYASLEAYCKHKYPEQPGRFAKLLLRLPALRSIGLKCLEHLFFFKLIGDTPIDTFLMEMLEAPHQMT
Description: PPARγ transactivation reporter gene assay in U2OS cells. Type of data set: cell-based. (In general: Reporter assays use an easily measured gene product as a stand-in for the process of interest.)

The next data set relates to beagle dogs. Put plainly: Heart weight in beagle dogs, chronic treatment. Format: in vivo, dog. Conditions: same regime (6 months), 54 mg kg^−1 (~1000 mg/m^2), data not shown.
The target in another data set is T2, PPARα (Homo sapiens, UniProt Q07869).
T2 sequence (Q07869 1-468): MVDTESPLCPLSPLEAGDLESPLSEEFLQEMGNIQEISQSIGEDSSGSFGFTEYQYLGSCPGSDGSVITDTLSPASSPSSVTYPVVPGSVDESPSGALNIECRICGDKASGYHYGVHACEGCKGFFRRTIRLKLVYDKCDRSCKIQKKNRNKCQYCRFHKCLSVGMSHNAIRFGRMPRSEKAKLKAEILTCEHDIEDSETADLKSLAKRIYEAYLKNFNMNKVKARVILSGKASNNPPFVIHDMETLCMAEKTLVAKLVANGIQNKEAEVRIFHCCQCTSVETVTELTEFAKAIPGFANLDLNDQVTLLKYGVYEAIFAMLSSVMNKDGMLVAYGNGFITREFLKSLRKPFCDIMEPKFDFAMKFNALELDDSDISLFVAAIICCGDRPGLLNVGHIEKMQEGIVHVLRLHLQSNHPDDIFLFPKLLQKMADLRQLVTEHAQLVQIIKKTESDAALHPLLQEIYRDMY
T2 sequence (P19793 1-462 partner): T1 sequence (P19793 1-462 partner)
Description: PPARα transactivation reporter gene assay in U2OS cells. Format: cell-based.

The mark [1] stands for this setting: 24 h treatment, luciferase reporter, hRXR cotransfected, ia: inactive at 10 μM.

For orientation: EC50 means the midpoint of the concentration-response curve. Lower therefore signals higher potency in that assay. On to `O=C(c1ccc(F)cc1)c1ccccc1NC(Cc1ccc(OCCn2c3ccccc3c3ccccc32)cc1)C(=O)O` (stereo not drawn) [Chi, 2-[(2-(4-fluorobenzoyl)phenyl)amino]-3-[4-(2-carbazolylethoxy)-phenyl]-propionic acid], for which, in the data set with db/db mice, the “Expression of UCP1 in adipose tissue” value is on record as “greater degree of upregulation”. Moreover, the EC50 at PPARγ (setting [1]) was 80 ± 20 nM; on PPARα (setting [1]), 1200 ± 300 nM. In addition, the “PPARγ % Max” value at PPARγ (max response compared with Ros at 1 μM) came to 117%. Moreover, in the data set with beagle dogs, the Heart weight entry is recorded as “did not induce significant increase”. Further, the “PPARα % Max” value at PPARα (max response compared with WY at 50 μM) was determined as 147%.
